Values of other authors, collected in patent publication US20220313684A1, “PHARMACEUTICAL COMPOSITION COMPRISING IRINOTECAN FREE BASE FOR ORAL ADMINISTRATION” (DAE HWA PHARMA. CO., LTD., priority 2019, published 2022).

Settings: oral administration of irinotecan; reported (EP 2328557)

Which “bioavailability upon oral administration” value does the source give for `CCc1c2c(nc3ccc(OC(=O)N4CCC(N5CCCCC5)CC4)cc13)-c1cc3c(c(=O)n1C2)COC(=O)[C@]3(O)CC` [irinotecan, (S)-4,11-diethyl-3,4,12,14-tetrahydro-4-hydroxy-3,14-dioxo-1H-pyrano[3′,4′:6,7]-indolizino[1,2-b]quinolin-9-yl [1,4′bipiperidine]-1′-carboxylate] here?
Its value is 9%.
